Experimental data published in PubChem BioAssay AID504322 (Emory University Molecular Libraries Screening Center, 2011).
Active and inactive are the calls of the source. The rule behind the calls is not given here.

These compounds were tested on CHOP reporter cell assay, percent of control (assay: CHOP reporter inhibitor potency, dose response, cell-based (AID 504322);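 note: CHO cells carrying a CHOP reporter stimulated with tunicamycin to induce ER stress; potency is for inhibition of the stress-induced reporter signal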).
For `CCC(C)Sc1nc2c(c(=O)[nH]c(=O)n2C)n1Cc1ccc(Cl)cc1` (centres undefined), the IC50 was > 10 µM (inactive).
With `CCOc1ccc(C(=O)C(CCC(CN(C)C)C(=O)c2ccc(OCC)cc2)CN(C)C)cc1` (centres undefined) the IC50 was 9.69 µM (inactive).
For `Cc1cc(/C=c2/sc3nc4ccccc4n3c2=O)c(C)n1-c1ccccn1`, the IC50 was < 0.16 µM.
`O=C(Cc1ccccc1)Nc1cccc(N2C(=O)C=CC2=O)c1` was tested, and the IC50 was 9.71 µM (inactive).
For `COC(=O)c1cc(NC(=S)Nc2cc(Cl)cc(Cl)c2)cc(C(=O)OC)c1`, the IC50 was > 10 µM (inactive).
For `CC(C)(C)C(=O)c1no[n+]([O-])c1/C(=N/O)C(C)(C)C`, the IC50 was 7.23 µM (inactive).
`Cc1ccc(Nc2nc(N)nc(CN3CCN(c4ccccc4)CC3)n2)cc1Cl` showed an IC50 of 8.47 µM.
For `O=[N+]([O-])c1ccc(/C=N/N=C/c2ccc([N+](=O)[O-])o2)o1`, the IC50 was 1.78 µM.
For `CCc1ccc(OCC(=O)NC(NC(=S)Nc2ccccc2)C(Cl)(Cl)Cl)cc1` (centres undefined), the IC50 was 8.12 µM (inactive).
`C/C(N)=C(/C#N)C(=O)COC(=O)C1CCC(C(C)(C)C)CC1` (centres undefined) gave an IC50 of 2.41 µM.
For `O=C(CNC1CCCCCC1)Nc1ccccc1N1CCCCC1`, the IC50 was 7.73 µM (inactive).
With `COc1cccc(NC(=O)CSc2nnc(-c3cc(C)n(-c4ccccc4)c3C)o2)c1` the IC50 was 1.76 µM (inactive).
With `COc1ccc(Cn2c(SCc3ccccc3C)nc3cc(OC)c(OC)cc3c2=N)cc1` the IC50 was 8.86 µM (inactive).
For `O=C(COC(=O)Cc1c(Cl)cccc1Cl)Nc1ccc(OC(F)(F)F)cc1`, the IC50 was > 10 µM (inactive).
For `O=C(Nc1ccccc1C(F)(F)F)c1cc(-c2ccc(O)cc2)on1`, the IC50 was 9.47 µM (inactive).
`CCCCc1ccc(Nc2nc(CCC)cc(=O)[nH]2)cc1` was tested, and the IC50 was 1.97 µM (inactive).
`C[C@H](NC(=O)c1[nH]cnc1C(=O)Nc1ccc(Cl)cc1)C(=O)OC(C)(C)C` was tested, and the IC50 was 5.47 µM (inactive).
`CCCCCCn1c(-c2ccco2)nc2oc3cc(OC)ccc3c(=O)c2c1=O` was tested, and the IC50 was 9.42 µM (inactive).
In the case of `O=C(Nc1ccc(C(O)(C(F)(F)F)C(F)(F)F)cc1)c1ccc(Cl)c([N+](=O)[O-])c1`, the IC50 is reported as 4.58 µM (inactive).
With `FC(F)(F)c1nnc(-c2ccccc2)nc1Sc1ccc(Cl)cc1` the IC50 was > 10 µM (inactive).
For `CCN(CC)S(=O)(=O)c1cccc(NC(=O)Nc2cccc(C(F)(F)F)c2)c1`, the IC50 was 8.55 µM (inactive).
With `CCN1/C(=C\C=C\C2=[N+](CC)c3ccccc3C2(C)C)C(C)(C)c2ccccc21` the IC50 was 0.32 µM (inactive).
`Cc1cccc(/C=C/c2nc3ccccc3c(=O)[nH]2)c1` was tested, and the IC50 was > 10 µM (inactive).
In the case of `Cc1ccc2nc(NC(=O)CSCC(=O)OCC(=O)c3ccc(Br)cc3)sc2c1`, the IC50 is reported as 5.35 µM (inactive).
`CN1CCN(c2ccc(-c3ccc4ccccc4n3)cc2)CC1` was tested, and the IC50 was < 0.16 µM (inactive).
`O=C(/C=C\c1cn(-c2ccccc2)nc1-c1ccccc1)Nc1nccs1` was tested, and the IC50 was 6.03 µM (inactive).
With `Cc1ccc(/C=N/N2C(=S)SC(C)(C)C2N(O)C(=O)Nc2ccc([N+](=O)[O-])cc2)cc1` (centres undefined) the IC50 was 2.67 µM (inactive).
`CC(C)(C)C(=O)NC(=S)NNC(=O)C(c1ccccc1)c1ccccc1` was tested, and the IC50 was 9.04 µM (inactive).
Work on `O=C(O)CSCC(=O)Nc1ccc(C2CCCCC2)cc1` yielded an IC50 of 0.54 µM.
For `FC(F)(F)c1cccc(NC(=S)N2CCN(c3cccc(C(F)(F)F)c3)CC2)c1`, the IC50 was 9.67 µM (inactive).
Work on `CC(C)(C)c1cc(CN2CCCC(O)C2)c(O)c(C(C)(C)C)c1` (centres undefined) yielded an IC50 of 5.02 µM.
In the case of `Cc1cc(C2=NNC(=NC3CC3)SC2)c(C)n1-c1ccccc1F`, the IC50 is reported as < 0.16 µM.
With `O=C(Nc1ccc(Oc2ccccc2)cc1)C1CCN(c2c3c(nc4ncnn24)CCC3)CC1` the IC50 was > 10 µM (inactive).
`Cc1ccccc1Oc1cc(-n2ncc(Cl)c(Cl)c2=O)ncn1` showed an IC50 of 2.08 µM.
For `CC1=C(CO)C(=O)OC([C@@H](C)C2CC[C@H]3C4C[C@H]5O[C@]56[C@@H](O)C=CC(=O)[C@]6(C)C4CC[C@]23C)C1` (some centres undefined), the IC50 was > 10 µM (inactive).
For `COc1cccc(-n2nnnc2S(C)(=O)=O)c1`, the IC50 was 5.51 µM (inactive).
With `Cc1ccc(NN2C(=O)C=C(c3ccc(Cl)cc3)C2=O)cc1` the IC50 was 2.09 µM.
In the case of `Cc1cccc(N2CCN(C(=O)CS(=O)(=O)Cc3nc(-c4ccccc4F)oc3C)CC2C)c1` (centres undefined), the IC50 is reported as > 10 µM (inactive).
`Cn1cnc([N+](=O)[O-])c1S(=O)(=O)c1ccc(Cl)cc1` was tested, and the IC50 was 7.04 µM (inactive).
`O=C(Nc1ccccc1)C1=C(c2ccccc2)S(=O)(=O)CCS1(=O)=O` was tested, and the IC50 was 9.67 µM (inactive).
`CCC1CCCCN1S(=O)(=O)c1ccc(C(=O)Nc2nnc(-c3ccccc3Cl)o2)cc1` (centres undefined) was tested, and the IC50 was 9.92 µM (inactive).
With `CCN(CC)CCOC(=O)c1ccc(N/C=C(/C#N)c2nc(-c3cccc(OC)c3)cs2)cc1` the IC50 was 9.3 µM (inactive).
`COc1cc(/C=C2\COC/C(=C\c3cc(OC)c(OC)c(OC)c3)C2=O)cc(OC)c1OC` gave an IC50 of 3.46 µM.
In the case of `CC[n+]1c(/C=C2\Sc3ccccc3N2C)ccc2cccc(C)c21`, the IC50 is reported as > 10 µM (inactive).
`Cn1c(=O)cc(SCC(=O)NCCC2=CCCCC2)c2ccc(Cl)cc21` was tested, and the IC50 was 5.34 µM (inactive).
For `O=S1(=O)C=C(Sc2nc3cc(Cl)ccc3o2)c2ccccc21`, the IC50 was 2.91 µM.
For `C(=N\Nc1ncnc2sc3c(c12)CCC3)/c1cccs1`, the IC50 was 8.89 µM (inactive).
For `Cc1ccc(C(C)C)c(OCC(=O)N/N=C/C2CCCCC2)c1`, the IC50 was 9.65 µM (inactive).
In the case of `CCCOC(=O)c1ccc(Oc2cn[nH]c2-c2ccc(OC)cc2O)cc1`, the IC50 is reported as 9.32 µM (inactive).
Work on `N#C/C(=C\c1ccc([N+](=O)[O-])o1)c1nc2ccccc2[nH]1` yielded an IC50 of 2.74 µM.
`O=C(NCc1nc(-c2ccc(C(F)(F)F)cc2)no1)Nc1ccc(OC(F)(F)F)cc1` was tested, and the IC50 was 2.03 µM.
With `C/C(=C\c1ccco1)C1C(C#N)=C(N)Oc2n[nH]c(-c3ccc(C)cc3)c21` (centres undefined) the IC50 was > 10 µM (inactive).
For `C/C(=N\N=C1\NC(=O)C(CC(=O)Nc2ccc(C)c(Cl)c2)S1)C(C)(C)C` (centres undefined), the IC50 was 9.43 µM (inactive).
`CS(=O)(=O)c1ncc(Cl)c(C(=O)Nc2ccc(N3CCOCC3)cc2)n1` was tested, and the IC50 was > 10 µM (inactive).
`CC(C)Oc1ccc(CNC(=O)CC(c2ccccc2)c2cc(Cl)ccc2O)cc1` (centres undefined) was tested, and the IC50 was 9.59 µM (inactive).
For `Cn1cnc([N+](=O)[O-])c1S(=O)(=O)c1cccc(Cl)c1`, the IC50 was 8.11 µM (inactive).
`FC(F)(F)c1cccc(CN2CCC(c3cc(-c4cccs4)n[nH]3)CC2)c1` was tested, and the IC50 was 9.4 µM (inactive).
For `CC(C)C[C@H](NC(=O)c1[nH]cnc1C(=O)Nc1ccccc1)C(=O)OC(C)(C)C`, the IC50 was 5.95 µM (inactive).
For `O=C(Nc1ccc(Cl)c(C(F)(F)F)c1)NC1CC2CCCC(C1)N2Cc1ccccc1` (centres undefined), the IC50 was 7.84 µM (inactive).
For `CCN1/C(=C/C=C/C=C/c2sc3ccccc3[n+]2CC)Sc2ccccc21`, the IC50 was 0.87 µM (inactive).
With `CCOc1cc(/C=C\[N+](=O)[O-])ccc1OCC(=O)Nc1ccccc1C` the IC50 was 4.96 µM (inactive).
In the case of `COc1ccc(C(C(=O)NC2CCCCC2)N(C(=O)CCl)c2cccc(Cl)c2)cc1` (centres undefined), the IC50 is reported as 9.57 µM (inactive).
Compound `CC(=O)Nc1ccc(NC2=Nc3ccccc3N3C2=Nc2c(c(C)nn2-c2ccccc2)C3c2ccccc2)cc1` (centres undefined) has an IC50 of 4.24 µM.
For `CC(C)Oc1cc(NC(=O)CS(=O)CC(=O)Nc2cccc(C(F)(F)F)c2)c(Cl)cc1Cl` (centres undefined), the IC50 was 7.99 µM (inactive).
`Cc1ccc(NC2=C/C(=N\S(=O)(=O)c3cccs3)c3ccccc3C2=O)c(C)c1` gave an IC50 of 4.52 µM.
For `O=C(Nc1cccc(Cl)c1)Nc1ccnc(-c2cccnc2)n1`, the IC50 was > 10 µM (inactive).
In the case of `O=c1[nH]c2ccccc2n1C1CCN(CCCC(c2ccc(F)cc2)c2ccc(F)cc2)CC1`, the IC50 is reported as 6.34 µM (inactive).
`CC(C)(C)OC(=O)N[C@@H](Cc1ccccc1)c1nnc(S(=O)(=O)Cc2ccccc2)o1` was tested, and the IC50 was 5.59 µM (inactive).
In the case of `COCCn1cnc2c(c1=O)c1nc3ccccc3nc1n2/N=C/c1cccc(OC)c1`, the IC50 is reported as 8.74 µM (inactive).
With `COc1ccc(C(=O)c2c(C(F)(F)F)oc3c2C(=O)c2ccccc2C3=O)cc1` the IC50 was 9.46 µM (inactive).
For `CC(C)(C)c1cc(-c2csc(Nc3ccccc3)[n+]2Cc2ccc(C(=O)O)cc2)cc(C(C)(C)C)c1O`, the IC50 was 9.46 µM (inactive).
With `O=S(=O)(/C(=C/c1ccc(C(F)(F)F)cc1)c1nc2ccccc2[nH]1)c1ccccc1` the IC50 was 5.46 µM (inactive).
In the case of `CC(C)CCn1c(=O)c(C(=O)N/N=C/c2cccc(F)c2)c(O)c2ccccc21`, the IC50 is reported as 2.97 µM.
For `COc1ccc(C(=O)/C=C/C(=O)N(CC(=O)NCCC(C)C)Cc2cccs2)c(O)c1`, the IC50 was 9.55 µM (inactive).
`COc1ccc(-c2nc(-c3ccc(NC(=O)c4ccc(Br)o4)cc3)no2)cc1OC` was tested, and the IC50 was > 10 µM (inactive).
For `C=CCOC(=O)C1=C(C)NC(C)=C(C(=O)OCC=C)C1/C=C/c1ccccc1`, the IC50 was 5.02 µM (inactive).
For `CC(C)(C)c1ccc(C(=O)NNC(=O)c2cccc(Br)c2)cc1`, the IC50 was > 10 µM (inactive).
With `OC(CNCCc1ccc(C(F)(F)F)cc1)COc1ccc2ccccc2c1` (centres undefined) the IC50 was 9.41 µM (inactive).
For `CC(CNC(=S)Nc1cc(F)cc(F)c1)CSc1ccc(Cl)cc1` (centres undefined), the IC50 was > 10 µM (inactive).
For `CCc1ccc(NP(=O)(Oc2ccccc2F)Oc2ccccc2F)cc1`, the IC50 was 9.66 µM (inactive).
With `CCSc1nc(-c2ccccc2)nc(C(Cl)Cl)n1` the IC50 was 6.32 µM (inactive).
For `O=C(Nc1ccc(OC(F)F)cc1)Nc1cccc(C(F)(F)F)c1`, the IC50 was 8.9 µM (inactive).
`COc1ccc(C(=O)/C=C/C(=O)N(CC(=O)NC2CCCCC2)Cc2ccc(F)cc2)c(O)c1` showed an IC50 of 2.12 µM.
For `Nc1cccc(Nc2nc(OC(C(F)(F)F)C(F)(F)F)nc(OC(C(F)(F)F)C(F)(F)F)n2)c1`, the IC50 was 3.09 µM (inactive).
`COc1ccccc1C(=O)NC(=Nc1nc2ccccc2o1)NC(=O)c1ccccc1OC` was tested, and the IC50 was 9.43 µM (inactive).
With `CC(C)Cn1c(=O)[nH]c(=O)c2c(C(F)(F)F)cc(-c3ccccc3)nc21` the IC50 was > 10 µM (inactive).
`Cc1cccc(NCC(=O)N/N=C\c2cccc(Oc3ccccc3)c2)c1` was tested, and the IC50 was 8.02 µM (inactive).
With `COc1ccc(/C=C2/SC(=S)N(CCCC(=O)Nc3ccc(O)cc3)C2=O)cc1` the IC50 was 0.25 µM.
In the case of `O=C(Nc1ccccc1)Nc1cc(OCC(F)(F)F)cc(OCC(F)(F)F)c1`, the IC50 is reported as 2.34 µM.
In the case of `O=C(Nc1ccc([N+](=O)[O-])cc1)Nc1ccc(OC(F)F)c(Cl)c1`, the IC50 is reported as 6.4 µM (inactive).
`CC(C)c1ccccc1NC(=O)Cn1c(/C=C/c2ccccc2)nc2ccccc21` was tested, and the IC50 was 5.88 µM (inactive).
`O=C(Nc1ccc(Cl)cc1)Nc1ccc(N2CCCC2)c(S(=O)(=O)Nc2ccccc2Cl)c1` was tested, and the IC50 was 5.95 µM (inactive).
In the case of `O=C(COc1ccc(Cl)cc1Cl)NCCC1=CCCCC1`, the IC50 is reported as 7.77 µM (inactive).
Compound `O=[N+]([O-])c1c(NCCCO)cc(Sc2ccc(Cl)cc2)c2nonc12` has an IC50 of 4.7 µM.
